In US20250345512A1, “COMBINATION SODIUM-GLUCOSE COTRANSPORTER INHIBITOR (SGLTI) INSULIN THERAPY FOR GLYCEMIC CONTROL IN TYPE 1 DIABETES” (University of Virginia Patent Foundation, priority 2022, published 2025):

Tested on: participants with T1D
Design: species or system human
Conditions: in vivo
Procedure: FIG. 2 presents a study analysis relative to baseline, control IQ (CIQ) (e.g., AID), and basal IQ (BIQ) (e.g., PLGS) implementation, according to investigation that is demonstrable of one or more embodiments herein. Therein, an experimental arm (G1, G2) providing an initial daily dose of 5 mg empagliflozin (EMPA) is depicted against a control arm (G3, G4) without such dosing (NOEMPA). Relative characteristics of the analysis are provided below.
Study Design: A single-center, randomized, controlled, unblinded, crossover clinical trial (NCT04201496) compared four parallel groups, two groups in the experimental arm (EMPA) with 5 mg daily empagliflozin as adjunctive therapy to PLGS or AID, and two groups in the control arm (NOEMPA) with no drug and with a PLGS system (Basal-IQ, Tandem Diabetes Care) or AID system (Control-IQ, Tandem Diabetes Care). […] A tolerance to the medication was assessed prior to the starting of the next study phase, including adherence to the protocol, ketone testing 2-4 times per day with monitored values not greater than 0.6 mmol/L on at least two successive occasions (the first testing upon waking in a fasted state), no adverse events relating to perineal infection or symptomatic postural hypotension, and no evidence of significant hypoglycemia <54 mg/dL, or any other listed adverse effects of the medication. […]

OC[C@H]1O[C@@H](c2ccc(Cl)c(Cc3ccc(O[C@H]4CCOC4)cc3)c2)[C@H](O)[C@@H](O)[C@@H]1O [CIQ-EMPA, empagliflozin]
Difference (95% CI): Ketones: 0.02 mmol/L
